Test results: PubChem BioAssay AID1645866 (Buhrlage Lab, Dana-Farber Cancer Institute and Novartis …, 2021)
The source made the active and inactive calls.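 The calls were made as follows: active = in confirmatory dose-response testing, peak deubiquitinase inhibition of 30% or more; inactive = the rest.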

Target: Ubiquitin carboxyl-terminal hydrolase 28 (Homo sapiens) (UniProt Q96RU2)
Assay: Concentration-response biochemical assay confirming initial hits as inhibitors of ubiquitin-specific protease 28 (AID 1645866)
Conditions: purified USP28, ubiquitin-rhodamine fluorescence, 30 min

Sequence of Ubiquitin carboxyl-terminal hydrolase 28 (Homo sapiens) (Q96RU2 whole entry, looked up): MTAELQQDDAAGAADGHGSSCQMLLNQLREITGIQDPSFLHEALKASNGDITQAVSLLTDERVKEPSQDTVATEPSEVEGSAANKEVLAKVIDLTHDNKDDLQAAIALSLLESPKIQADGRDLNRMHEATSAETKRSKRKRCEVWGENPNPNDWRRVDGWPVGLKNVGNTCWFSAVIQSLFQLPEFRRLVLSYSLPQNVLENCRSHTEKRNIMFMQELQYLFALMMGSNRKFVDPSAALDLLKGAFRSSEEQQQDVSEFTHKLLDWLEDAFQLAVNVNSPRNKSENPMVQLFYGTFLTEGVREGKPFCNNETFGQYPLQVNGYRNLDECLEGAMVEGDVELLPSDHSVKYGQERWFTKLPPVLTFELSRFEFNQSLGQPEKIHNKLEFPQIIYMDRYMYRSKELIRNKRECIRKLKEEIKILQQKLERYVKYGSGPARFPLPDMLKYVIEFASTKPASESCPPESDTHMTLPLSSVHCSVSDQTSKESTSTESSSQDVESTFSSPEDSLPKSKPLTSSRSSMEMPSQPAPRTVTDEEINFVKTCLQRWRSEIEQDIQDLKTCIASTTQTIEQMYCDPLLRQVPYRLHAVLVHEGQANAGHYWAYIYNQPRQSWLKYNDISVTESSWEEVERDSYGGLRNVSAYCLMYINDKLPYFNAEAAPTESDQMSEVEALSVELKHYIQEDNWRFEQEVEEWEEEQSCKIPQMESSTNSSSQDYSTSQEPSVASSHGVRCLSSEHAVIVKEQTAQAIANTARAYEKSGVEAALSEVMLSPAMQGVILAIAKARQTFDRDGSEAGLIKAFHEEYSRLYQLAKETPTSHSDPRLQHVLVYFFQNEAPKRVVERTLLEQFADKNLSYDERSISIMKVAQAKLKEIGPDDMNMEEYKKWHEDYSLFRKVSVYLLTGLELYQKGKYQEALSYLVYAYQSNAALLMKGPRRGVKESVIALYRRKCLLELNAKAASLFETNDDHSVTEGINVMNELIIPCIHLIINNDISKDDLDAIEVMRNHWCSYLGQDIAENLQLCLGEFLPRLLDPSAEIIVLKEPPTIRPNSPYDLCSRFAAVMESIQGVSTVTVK

Structure (SMILES) | IC50
Cc1ccc(NCc2cc3c(C(C)(C)C)nn(-c4ccc(Cl)cc4)c3[nH]c2=O)cc1 | 23.6 µM
CC(C)c1ccc(NC(=O)COC(=O)c2ccc3[nH]c4c(c3c2)CCCC4)cc1 | 31.4 µM
O=C(Nc1nc2c(s1)COCC2)c1cc(-c2ccco2)[nH]n1 | > 50 µM (inactive)
COc1ccc2c(C)c(CC(=O)N3CCC[C@H]3C(=O)O)c(=O)oc2c1C | 44.6 µM
Cc1ccn(-c2ccc(NC(=O)C3CCCCC3)cc2)n1 | 22.6 µM
CCc1ccc(-n2c(=O)c3ccccc3n(CC(=O)NCCC3=CCCCC3)c2=O)cc1 | 14.5 µM
CN1C(=O)[C@@]23C[C@]4([C@@]56C[C@]78SS[C@](CO)(C(=O)N7[C@@H]5Nc5ccccc56)N(C)C8=O)c5ccccc5N[C@@H]4N2C(=O)[C@]1(CO)SS3 | > 50 µM (inactive)
Cc1c(-c2ccccc2)oc2c(C(=O)OCC(=O)Nc3ccccc3F)cccc2c1=O | > 50 µM (inactive)
CCn1cc(NC(=O)CN2CCC3(CC=CCOC3)CC2)c(C)n1 | > 50 µM (inactive)
O=C(Cn1c(=O)n(CC(=O)NC2CCCC2)c(=O)c2ccccc21)Nc1cc(Cl)ccc1Cl | 4.52 µM
O=C(CSc1nc2ccccc2n1S(=O)(=O)c1ccc(Br)cc1)Nc1ccc([N+](=O)[O-])cc1Cl | 8.65 µM
CCCCc1nc2sc3c(SCC(=O)NCc4ccccc4)ncnc3c2c2c1CCC2 | 39 µM
CCOc1ccc2c(c1)c(=O)c(C(=O)c1ccccc1)cn2CC(=O)Nc1ccc2c(c1)OCCO2 | 24 µM
O=C(c1ccc2ncccc2c1)N1CCC2(C1)Nc1cccnc1NC2=NC1CCCC1 (stereo not drawn) | > 50 µM (inactive)
O=C(NC1(O)C(=O)c2ccccc2C1=O)c1cccc2c1-c1ccccc1C2=O | 32.6 µM
CC1=CN2C(=N)/C(=C/c3cn(Cc4ccc(Cl)cc4)c4ccccc34)C(=O)N=C2S1 | > 50 µM (inactive)
CCc1cccc(CC)c1NC(=O)COC(=O)c1cc2cccc(OC)c2oc1=O | 16.4 µM
O=C(CN1C(=O)NC2(CCCCC2)C1=O)Nc1ccc([N+](=O)[O-])cc1 | 33.2 µM
Cc1cc(C)nc(-n2nc(C)c3c2NC(=O)CSC3c2ccccc2F)n1 (stereo not drawn) | 34.3 µM
O=C(NCc1ccc(F)cc1)C1CCCN(c2cnc3nccnc3c2)C1 (stereo not drawn) | > 50 µM (inactive)
O=S(=O)(c1ccc2c(c1)OCCO2)N(Cc1ccccc1)Cc1nnc(-c2ccccc2)o1 | > 50 µM (inactive)
Cc1cc(C(=O)N2CCN(C3CCN(Cc4ccc(Cl)o4)CC3)C(=O)C2)c(C)o1 | > 50 µM (inactive)
N#Cc1ccc(NC(=O)c2ccc(S(=O)(=O)N3CCCCC3)cc2)cc1 | 27.6 µM
CCCCN1CC(C(=O)Nc2ccc(C(=O)Nc3ccc(F)c(Cl)c3)cc2)CC1=O (stereo not drawn) | 34.2 µM
CC(=O)c1ccc(NC(=O)c2nc3ccccc3nc2N2CCOCC2)cc1 | > 50 µM (inactive)

Structure (SMILES) | IC50
COC1=CC(=O)c2c(O)c3c(c(C)c2C1=O)C[C@@]1(O)[C@H](O[C@H]2CC[C@H](O[C@H]4C[C@@](C)(O)[C@H](OC(=O)c5c(C)ccc(C)c5O)[C@H](C)O4)[C@@H](C)O2)C(=O)C(C(C)=O)=C(O)[C@@]1(O)C3=O | 2.27 µM
O=C(CCCCn1c(=O)c2ccccc2n(CC(=O)Nc2ccc(F)c(Cl)c2)c1=O)NCc1ccco1 | > 50 µM (inactive)
Cn1cc2cccc(NC(=O)c3ccc(F)cc3)c2n1 | > 50 µM (inactive)
Nc1nc(-c2ccc[nH]2)cs1 | > 50 µM (inactive)
CCOC(=O)c1ccc(NC(=O)Cn2c(=O)n(CC(=O)NCCc3ccc(OC)c(OC)c3)c(=O)c3sccc32)cc1 | 1.96 µM
CC(=O)N1CCCC(c2nc(C)cc(-c3cc(F)ccc3C(=O)O)n2)C1 (stereo not drawn) | > 50 µM (inactive)
COc1ccccc1C(=O)N1CCc2[nH]c3ccc(F)cc3c2C1 | > 50 µM (inactive)
COc1ccc(N2CCN(Cc3nnnn3Cc3ccc4c(c3)OCO4)CC2)cc1 | > 50 µM (inactive)
O=[N+]([O-])c1cccc(CSc2nnc(/C=C/c3ccccc3)o2)c1 | > 50 µM (inactive)
Cc1cccc(-n2ccnc(SCC(=O)Nc3ccc(Cl)cc3F)c2=O)c1 | 3.91 µM
CC1=C[C@@H](C)CC[C@H]2O[C@@H](C3=C(O)C(=O)C(C)=C4O[C@](O)(C=C43)[C@@H](C)C[C@H](C)C1)[C@H](C)[C@@H](O)[C@H]2C | 19.5 µM
O=C(COc1ccc2ccccc2c1)Nc1cccc2ccccc12 | 22.4 µM
COc1ccc(C)cc1NC(=O)COc1ccc2c(c1)OCO2 | 49.6 µM
COc1ccc(C2SCC(=O)Nc3c2c(=O)[nH]n3C2CCCCC2)cc1 (stereo not drawn) | 24.6 µM
COc1ccc(CCn2cnc3c4ccccc4n(C)c3c2=O)cc1OC | 8.44 µM
CCOC(=O)c1ccc(NC(=O)c2cnc(N3CCOCC3)nc2)cc1 | > 50 µM (inactive)
CC(C)NS(=O)(=O)c1ccc(OCC(=O)N2CCC(Cc3ccccc3)CC2)cc1 | 5.5 µM
O=S(=O)(c1cccc(F)c1)N1CCc2nc3ccccc3n2CC1 | 10.8 µM
CSc1nc2ncn(CC(=O)Nc3cccc(Cl)c3)c(=O)c2s1 | > 50 µM (inactive)
Cc1ccc(Nc2nc(Nc3cccc(F)c3)nc3nccnc23)c(C)c1 | > 50 µM (inactive)
COc1cccc(-c2cc(C(=O)N3CCN(c4ccc(N5CCOCC5)nn4)CC3)[nH]n2)c1 | 3.83 µM
CCCCN1CC(C(=O)Nc2ccc(C(=O)Nc3ccc(Cl)cc3)cc2)CC1=O (stereo not drawn) | 10.5 µM
COc1ccc(COc2ccc3c(C)c(CC(=O)N4CC[C@@]5(O)CCCC[C@H]5C4)c(=O)oc3c2)cc1 | 2.27 µM
Cc1ccc(-c2noc(-c3nnc(SCC(=O)NC4CCCC4)n3C)n2)cc1 | inactive
Cc1ccc(NC(=O)c2ccn(COc3ccc(F)cc3)n2)nc1 | 33.3 µM

Structure (SMILES) | IC50
O=C(Cn1nnc(-c2ccc(F)cc2)n1)NCCc1ccccc1 | 44.3 µM
Cc1ccccc1NC(=O)Cn1c(N2CCOCC2)nc2cc(C)n(C)c2c1=O | 20.1 µM
CCCn1c(=O)n(CC(=O)c2ccccc2F)c2c(C(N)=O)nc(-c3ccco3)nc21 | > 50 µM (inactive)
O=c1c2ccccc2oc2nc(-c3cccs3)n(-c3ccccc3)c(=O)c12 | 2.12 µM
O=C(Nc1ccccc1Cl)N(Cc1cc2cc3c(cc2[nH]c1=O)OCCO3)C1CCCCC1 | 49.1 µM
COc1cc(C#N)c(NC(=NCc2ccc(F)cc2)SC)cc1OC | 22.5 µM
CCC(=O)Nc1ccc2c(c1)nc(CSc1nccc(C)n1)n2CC | 0.365 µM
Cc1ccc(-c2nc(NC(=O)COc3ccc(Cl)cc3)no2)cc1 | 4.74 µM
O=C(CSc1nc2ccncc2[nH]1)Nc1ccc(Br)cc1F | 26.5 µM
Cc1cccc(C(=O)OCC(=O)Nc2ccc3[nH]c(=O)[nH]c3c2)c1C | 4.94 µM
CCCc1nc2c(sc3nc4c(cc32)COC(C)(C)C4)c(=O)n1CC(=O)Nc1ccccc1C | 21.9 µM
COc1ccc(OC)c(CCNC(=O)CCC2=NS(=O)(=O)c3ccc(C(F)(F)F)cc3N2)c1 | 23.6 µM
O=C(Nc1ccc2c(c1)OCO2)c1cc(-c2cccnc2)n(-c2ccccc2)n1 | 8.27 µM
COc1cccc(NC(=O)C2CCC(CNS(=O)(=O)c3ccc4c(c3)C(C)(C)C(=O)N4C)CC2)c1 (stereo not drawn) | 2.6 µM
Cc1ccc(-n2cc(C(=O)NCc3cccnc3)nn2)cc1C | 16.6 µM
c1ccc(CCN2CCc3nc4cccnc4cc3C2)nc1 | > 50 µM (inactive)
CCC(=O)OCc1cnc(C)c2oc(=O)c(-c3nc(-c4ccccc4)no3)cc12 | > 50 µM (inactive)
COc1cccc2cc(C(=O)Nc3nc(-c4ccncc4)cs3)oc12 | 0.647 µM
COc1ccccc1NC(=O)Cn1cc(C(=O)c2ccc(C)cc2)c(=O)c2cc(Cl)ccc21 | 11.3 µM
c1ccc(-c2ccc(NCc3ccc4c(c3)OCO4)nn2)cc1 | 6.27 µM
COc1ccc(N(CC(=O)NC2CCCCC2)C(=O)c2ccc(-c3ccccc3)[nH]2)cc1OC | 4.16 µM
Nc1c(C(=O)NCCc2ccccc2)nnn1-c1ccc(F)cc1 | 42.5 µM
Cc1nc(-c2cccc(NC(=O)C3CCN(c4ccccc4)C3=O)c2)no1 (stereo not drawn) | 27.3 µM
CC1=C(C(=O)Nc2ccccc2C)C(c2ccc(OCc3ccccc3F)cc2)n2ncnc2N1 (stereo not drawn) | 21.6 µM
Oc1sc(C=Nc2cc(Cl)ccc2Cl)c2ccccc12 | 2.98 µM

Structure (SMILES) | IC50
COc1cccc(C(=O)Nc2ccc(-n3cnnn3)cc2)c1 | 21.7 µM
CCC(C)(C)C1CCC2(CC1)N=C(N)Nc1nc3ccccc3n12 (stereo not drawn) | 35.6 µM
Cc1c(-c2nn3c(-c4ccco4)nnc3s2)cccc1[N+](=O)[O-] | 2.49 µM
COc1ccc(C(=O)NCCc2nnc3ccc(SCC(=O)NCc4ccc(F)cc4)nn23)cc1 | 15.7 µM
Cc1ccc(S(=O)(=O)N(C)C)cc1NC(=O)Cc1ccc(Cl)c(Cl)c1 | 0.274 µM
CN1CCN(C(=O)c2cc(-c3ccn(-c4ccccc4)n3)n3ccccc23)CC1 | > 50 µM (inactive)
O=C(CNC(=O)c1cc2ccccc2[nH]1)Nc1ccc2c(c1)OCCO2 | 45.9 µM
COc1ccc(-c2nc(SCC(=O)Nc3ccc(Cl)cc3F)n[nH]2)cc1 | > 50 µM (inactive)
Nc1ccc(F)c(NS(=O)(=O)c2ccccc2)c1 | > 50 µM (inactive)
O=C(COC(=O)c1ccc(CN2CCCC2=O)cc1)c1ccc2c(c1)OCCO2 | 0.113 µM
Cc1ccc2c(C)nc(Nc3ncc4c(n3)CC(c3ccco3)CC4=O)nc2c1 (stereo not drawn) | < 0.05 µM
COc1ccc(C(=O)N2CCCC3(C2)Nc2cccnc2NC3=NC2CCCC2)cn1 (stereo not drawn) | > 50 µM (inactive)
CSc1cccc(C(=O)Nc2ccc(-c3nc4ccccc4[nH]3)cc2)c1 | 5.8 µM
O=C(COc1ccccc1-c1nnc(-c2ccccc2)o1)Nc1ccc(F)cc1F | 3.36 µM
O=C(NC1(O)C(=O)c2ccccc2C1=O)c1ccc(-c2csnn2)cc1 | 36.5 µM
Cc1cccc(NC(=O)CN2C(=O)CC(c3ccccc3)S(=O)(=O)c3ccccc32)c1C (stereo not drawn) | 21.6 µM
O=C(COC(=O)c1n[nH]c2ccccc12)Nc1ccc(N2CCCCC2)cc1 | 25.9 µM
Cc1cccc(-n2nc(C)c3c2NC(=O)CC3C(=O)c2cc3ccccc3o2)c1 (stereo not drawn) | 25.3 µM
COc1cccc(NC(=O)CSc2nnc(-c3cc4cccc(OC)c4o3)n2C)c1 | 14.6 µM
CC(=O)N1CCc2cc(S(=O)(=O)NC(Cc3ccccc3)C(=O)Nc3cccc(Cl)c3C)ccc21 (stereo not drawn) | 9.5 µM
Cc1ccc(-c2ccc(N3CCOCC3)nn2)cc1S(=O)(=O)N1CCOCC1 | > 50 µM (inactive)
COc1cccc(N2CCN(C(=O)CCNS(=O)(=O)c3ccc4c(c3)CCC(=O)N4)CC2)c1 | > 50 µM (inactive)
CCCCc1nc2sc3c(NCCN4CCOCC4)ncnc3c2c2c1CCC2 | 0.549 µM
